Results reported in patent US20230174571A1, “METHOD OF TREATING SHIP1-MEDIATED DISEASES USING PELOROL DERIVATIVES” (Zebrapeutics Inc., priority 2020, published 2023).
Positions count from the first letter of the chain named. Blank lines part the entries; values can stand above or below the molecule they belong to.

Legend:
[1] = molecular target: T1, SHIP1 (Homo sapiens, UniProt Q92835); settings: scintillation proximity assay, Stenton et al; cited from earlier work
T1 sequence (Q92835 1-1189): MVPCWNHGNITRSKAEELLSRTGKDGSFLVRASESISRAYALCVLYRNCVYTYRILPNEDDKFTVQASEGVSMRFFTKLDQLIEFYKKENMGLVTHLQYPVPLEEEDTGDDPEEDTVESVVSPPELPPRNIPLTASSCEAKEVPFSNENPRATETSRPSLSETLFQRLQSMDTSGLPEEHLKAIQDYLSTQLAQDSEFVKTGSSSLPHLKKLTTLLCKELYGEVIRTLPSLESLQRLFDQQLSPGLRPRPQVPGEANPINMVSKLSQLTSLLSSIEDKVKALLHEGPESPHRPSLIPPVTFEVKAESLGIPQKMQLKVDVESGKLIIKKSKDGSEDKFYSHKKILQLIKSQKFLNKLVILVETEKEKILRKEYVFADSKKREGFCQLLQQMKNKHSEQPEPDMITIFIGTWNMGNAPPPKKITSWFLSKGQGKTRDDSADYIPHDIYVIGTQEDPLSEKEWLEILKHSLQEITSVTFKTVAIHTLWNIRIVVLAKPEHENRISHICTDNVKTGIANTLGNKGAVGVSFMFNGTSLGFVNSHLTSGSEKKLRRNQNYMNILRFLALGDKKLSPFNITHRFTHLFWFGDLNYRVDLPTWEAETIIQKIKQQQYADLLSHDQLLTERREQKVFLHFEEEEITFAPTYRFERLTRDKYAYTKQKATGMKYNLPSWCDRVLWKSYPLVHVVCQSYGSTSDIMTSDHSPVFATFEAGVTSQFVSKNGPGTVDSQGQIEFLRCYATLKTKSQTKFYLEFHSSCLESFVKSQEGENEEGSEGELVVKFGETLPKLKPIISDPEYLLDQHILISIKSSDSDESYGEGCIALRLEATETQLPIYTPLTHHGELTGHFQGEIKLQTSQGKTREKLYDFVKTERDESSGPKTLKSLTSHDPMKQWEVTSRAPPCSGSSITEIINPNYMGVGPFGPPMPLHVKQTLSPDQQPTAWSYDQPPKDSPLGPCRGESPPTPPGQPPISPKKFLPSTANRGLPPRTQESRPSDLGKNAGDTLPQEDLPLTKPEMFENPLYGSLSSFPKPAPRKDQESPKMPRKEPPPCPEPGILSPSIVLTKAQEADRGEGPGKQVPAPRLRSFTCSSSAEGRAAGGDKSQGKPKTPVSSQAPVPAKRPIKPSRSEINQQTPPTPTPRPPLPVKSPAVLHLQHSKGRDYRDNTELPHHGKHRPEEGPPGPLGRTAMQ

[2] = molecular target: T1, SHIP1; settings: Stenton et al., 2013b; cited from earlier work
[3] = molecular target: T2, PAC2 WT (Mus musculus, UniProt Q9ES52); assay: Biolayer interferometry, wild-type PAC2; type: binding; settings: 20 μM analyte; compared to compound I-2 or PI(3,4)P2
T2 construct: PAC1 and PAC2 consists of phosphatase and C2 domain (residues aa 402-861 and aa 402-857 respectively); made in house; host or cells: E. coli BL21 co-transformed with pBirAcm
T2 sequence (Q9ES52 402-857): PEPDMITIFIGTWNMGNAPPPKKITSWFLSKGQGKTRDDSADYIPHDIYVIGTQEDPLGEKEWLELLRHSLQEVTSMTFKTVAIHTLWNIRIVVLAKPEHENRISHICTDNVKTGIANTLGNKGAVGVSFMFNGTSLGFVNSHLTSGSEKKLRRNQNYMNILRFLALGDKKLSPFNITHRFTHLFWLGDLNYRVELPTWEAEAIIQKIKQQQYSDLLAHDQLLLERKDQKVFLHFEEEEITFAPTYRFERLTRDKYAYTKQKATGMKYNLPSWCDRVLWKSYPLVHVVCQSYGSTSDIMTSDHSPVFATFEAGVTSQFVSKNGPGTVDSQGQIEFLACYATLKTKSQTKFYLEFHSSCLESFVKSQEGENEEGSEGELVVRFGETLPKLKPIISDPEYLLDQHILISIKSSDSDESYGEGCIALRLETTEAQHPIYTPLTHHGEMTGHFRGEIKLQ
Description: (§1) Expression of PAC2-Avi tag for Biolayer interferometry. A sequence corresponding to Avi-tag ([…]) was added to the c-terminal end of the PAC2 in LIC-HMT-PAC2 expressing vector via standard restriction digestion and ligation. The LIC-HMT-PAC2-Avi expressing vector was then co-transformed into E. coli BL21 cells with pBirAcm expression vector in 1:1 molar ratio. Overnight culture was inoculated with a 250-fold dilution to start the actual culture. The cells were grown at 37° C. in LB medium (supplemented with 50 μg/mL of kanamycin and 10 μg/mL of chloramphenicol) with shaking speed of 225 rpm. When OD600 reached about 0.6, 5 mM of biotin in bicine buffer pH 8.3 was added to the culture to have final concentration of 125 μM of biotin. The culture was then cooled down to room temperature before the addition of 0.4 mM isopropyl-B-D-1-thiogalactopyranoside (IPTG) to induce the expression of the recombinant protein with Avi-tag. The rest of the method is identical as written in “Expression of PAC2 for crystallography”.
(§2) Biolayer interferometry. […] The association was measured for 600 s at an analyte concentration of 20 μM followed by dissociation for 300 s in the same buffer as the baseline. The raw data was analyzed using the Octet Red Data Analysis software (ver. 8.2). […]

[4] = molecular target: T3, SHIP1 and STAT3 (Mus musculus, UniProt Q9ES52); assay: In vitro pull down assay of His6-SHIP1 with STAT3; type: cell-based; settings: J17 His6-SHIP1 cells; 100 ng/ml IL10 or IL6, 20 μM compound I-2; 5 minutes
T3 construct: expressed in transfected cells; host or cells: J17 (SHIP1-/- mouse BMDM-derived line), lentiviral transduction
T3 sequence (Q9ES52 1-1191): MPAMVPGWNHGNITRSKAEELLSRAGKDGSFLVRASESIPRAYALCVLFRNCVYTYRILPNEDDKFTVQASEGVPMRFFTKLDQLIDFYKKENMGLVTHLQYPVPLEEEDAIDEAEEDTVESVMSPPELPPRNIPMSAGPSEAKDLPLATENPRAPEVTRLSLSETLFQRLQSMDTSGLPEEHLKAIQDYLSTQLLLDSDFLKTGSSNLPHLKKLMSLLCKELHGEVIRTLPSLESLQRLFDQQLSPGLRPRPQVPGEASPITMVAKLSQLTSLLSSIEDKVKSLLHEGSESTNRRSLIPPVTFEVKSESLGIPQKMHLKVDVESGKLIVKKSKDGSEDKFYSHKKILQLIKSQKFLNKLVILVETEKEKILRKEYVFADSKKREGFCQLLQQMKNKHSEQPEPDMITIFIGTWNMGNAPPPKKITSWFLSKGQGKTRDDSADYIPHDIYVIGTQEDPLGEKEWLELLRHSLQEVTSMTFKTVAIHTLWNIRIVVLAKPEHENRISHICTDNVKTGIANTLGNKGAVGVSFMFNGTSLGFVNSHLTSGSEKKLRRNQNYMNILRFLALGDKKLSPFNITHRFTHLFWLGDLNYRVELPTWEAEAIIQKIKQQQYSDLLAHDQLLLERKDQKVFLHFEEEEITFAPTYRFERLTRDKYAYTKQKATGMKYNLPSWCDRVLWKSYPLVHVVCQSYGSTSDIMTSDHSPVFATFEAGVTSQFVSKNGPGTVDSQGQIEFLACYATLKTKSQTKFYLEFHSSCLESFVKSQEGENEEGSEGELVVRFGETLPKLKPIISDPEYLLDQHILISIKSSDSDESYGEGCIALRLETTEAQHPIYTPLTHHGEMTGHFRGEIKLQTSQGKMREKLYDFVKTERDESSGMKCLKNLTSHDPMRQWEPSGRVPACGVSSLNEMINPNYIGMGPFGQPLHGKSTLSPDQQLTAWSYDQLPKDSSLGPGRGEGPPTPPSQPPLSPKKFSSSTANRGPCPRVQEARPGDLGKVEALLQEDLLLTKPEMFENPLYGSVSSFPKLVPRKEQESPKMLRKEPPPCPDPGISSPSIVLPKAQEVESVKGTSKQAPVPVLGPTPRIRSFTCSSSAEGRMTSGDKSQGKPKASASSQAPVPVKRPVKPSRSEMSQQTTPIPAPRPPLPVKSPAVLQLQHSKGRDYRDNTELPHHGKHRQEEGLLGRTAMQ
Description: In vitro pull down assay. J17 His6-SHIP1 and Y190F cells were seeded at 2×10^6 cells per well in a 6-well plate. After overnight incubation, fresh cell media was added for 30 minutes before stimulation with 100 ng/ml IL10, […] or 20 μM compound I-2 for 5 minutes. Cells were lysed with Protein Solubilization Buffer (PSB, 50 mM Hepes, pH 7.5, […], 10 mM Na Pyrophosphate, 2 mM NaVO4, 2 mM Na Molybdate, 2 mM EDTA) containing 1% octylglucoside, 0.01 M imidazole, and protease inhibitor cocktail (Roche Diagnostics, Laval, QC) for 30 minutes at 4° C. and centrifuged at 10000 rpm for 15 minutes. EDTA resistant Ni beads (Roche Diagnostics, Laval, QC) were added to supernatants and the mixture incubated at 4° C. for 1 hour before spinning down and washing of beads three times with 0.1% octylglucoside wash buffer in PSB. Bead samples and starting material cell lysates were separated on a 7.5% SDS-PAGE gel.
Immunoblotting. Protein lysates were separated on SDS-PAGE gels and transferred onto polyvinylidene fluoride (PVDF) membrane (Millipore, Etobicoke, ON). Membranes were blocked and probed, where appropriate, with the following primary antibodies overnight: SHIP1 (P1C1) (Santa Cruz Biotechnology), pSHIP1 (Y190) (Kinexus), STAT3 (9D8) (ThermoFisher Scientific), pSTAT3 (Y705) (Thermo Fisher Scientific), STAT1 (BD Transduction Laboratories), pSTAT1 (Y701) (Upstate Biotechnology), GAPDH and actin (Sigma-Aldrich). Membranes were developed with either Alexa Fluor® 660 anti-mouse IgG or Alexa Fluor® 680 anti-rabbit IgG antibodies (Thermo Fisher Scientific) and imaged using a LI-COR Odyssey Imager.

[5] = molecular target: T4, Clover-SHIP1 and mRuby2-STAT3 (Mus musculus, UniProt Q9ES52); assay: Acceptor photobleaching FRET analysis; type: cell-based; settings: J17 SHIP1−/− cells expressing Clover-SHIP1/mRuby2-STAT3; 1 minute; 100 ng/ml IL10, IL6 or 20 μM I-2
T4 construct: expressed in transfected cells; host or cells: J17 (SHIP1-/- mouse macrophage line), lentiviral transduction
Description: Acceptor Photobleaching FRET analysis. J17 cells expressing Clover-SHIP1 and/or mRuby2-STAT3 were seeded at 50×10^4 cells per well in 8-well Ibidi p-Slides (Ibidi GmbH, Martinsried, Germany). After overnight incubation, cells were serum-starved with Mac media containing 1% serum for 3 hours before media replacement with Leibovitz's (L-15) media (Invitrogen, Burlington, ON) supplemented with 1% serum, 10 μM β-mercaptoethanol, 150 μM monothioglycolate and 1 mM L-glutamine for confocal microscopy imaging. Cells were imaged on a Leica SP8X on DMi8 confocal microscope system with a 63×/1.3 Gly HC PL APO CS2 objective using a white light laser line with 488 nm for donor excitement and 555 nm for acceptor excitement. Photobleaching FRET analysis was performed by measuring Clover-SHIP1 donor fluorescence intensity before and after bleaching the acceptor, mRuby2-STAT3, within a field of cells ‘region of interest’ (ROI), at 100% laser intensity for 60 frames. Acceptor photobleaching was performed first in resting cells then at 1 minute (±5 seconds) following ‘mock’ stimulation with L-15 media, or L-15 media containing 100 ng/ml IL10, IL6 or 20 μM compound I-2. Donor and acceptor fluorescence intensity of individual cells within the bleached ROI was quantified before and after bleaching. Percentage FRET efficiency was calculated as % FRETeff=100×(Dpost−Dpre)/Dpost where Dpre and Dpost represent Clover-SHIP1 donor fluorescence intensity before and after bleaching, respectively.

[6] = molecular target: T5, PAC2-K681A (Mus musculus, UniProt Q9ES52, K681A); assay: Biolayer interferometry, PAC2-K681A; type: binding; settings: 20 μM analyte; K681A vs wild-type PAC2
T5 construct: PAC1 and PAC2 consists of phosphatase and C2 domain (residues aa 402-861 and aa 402-857 respectively); made in house; host or cells: E. coli BL21 co-transformed with pBirAcm
T5 sequence (Q9ES52 402-857 K681A): T2 sequence (Q9ES52 402-857) with K280A
Description: as §1, §2

T4 sequence (P42227 whole entry partner, one chain of several): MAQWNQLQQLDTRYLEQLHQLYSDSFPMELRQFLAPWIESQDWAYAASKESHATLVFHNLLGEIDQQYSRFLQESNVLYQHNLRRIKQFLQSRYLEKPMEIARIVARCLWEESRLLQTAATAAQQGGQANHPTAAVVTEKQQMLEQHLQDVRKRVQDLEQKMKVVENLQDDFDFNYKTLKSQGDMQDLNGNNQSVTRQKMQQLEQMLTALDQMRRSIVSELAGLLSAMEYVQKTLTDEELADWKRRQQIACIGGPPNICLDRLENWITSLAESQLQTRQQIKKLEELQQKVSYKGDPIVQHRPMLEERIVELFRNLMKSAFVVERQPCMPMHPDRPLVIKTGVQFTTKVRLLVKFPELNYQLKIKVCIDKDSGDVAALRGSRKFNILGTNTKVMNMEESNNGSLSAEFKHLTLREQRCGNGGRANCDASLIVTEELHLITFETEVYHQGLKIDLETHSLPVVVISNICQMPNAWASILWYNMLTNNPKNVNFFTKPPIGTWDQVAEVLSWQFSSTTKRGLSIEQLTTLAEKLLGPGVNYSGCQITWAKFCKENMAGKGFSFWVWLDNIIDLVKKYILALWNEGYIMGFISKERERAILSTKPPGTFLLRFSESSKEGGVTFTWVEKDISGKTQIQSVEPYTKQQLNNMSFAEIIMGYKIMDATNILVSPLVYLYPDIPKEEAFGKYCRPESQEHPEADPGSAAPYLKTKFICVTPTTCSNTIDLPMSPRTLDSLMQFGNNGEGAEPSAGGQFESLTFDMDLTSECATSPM

Molecule: C=C1CC[C@H]2[C@H](CN)[C@@H]([C@@]3(C)CC[C@H](O)C[C@@H]3CO)CC[C@]12C [AQX-1125/Rosiptor]
signal of tritiated compound binding to SHIP1 protein [1]: ~300 cpm
SHIP1 phosphatase enhancing activity [2]: marginal
binding to SHIP1 (PAC2 WT) in BLI assay [3]: binds very poorly

Clover-mRuby2 FRET signal [5]: not
Molecule: IL6: pro-inflammatory cytokine IL6
association (co-precipitation) of SHIP1 and STAT3 [4]: failed to induce STAT3 association with SHIP1

Molecule: PI(3,4)P2 [reference compound]
binding to PAC2 with K681A substitution (BLI) [6]: impairs
